Article PMC9739695, “Water-Soluble Salts Based on Benzofuroxan Derivatives—Synthesis and Biological Activity” (International Journal of Molecular Sciences, 2022)
Where a name gives a salt, the structure may show the parent alone. Read-outs that look alike come from different tables or passages of the source. Blank lines part the entries; values can stand above or below the compound they belong to.

Legend:
alfalfa seeds = assay: Pre-sowing seed treatment, sowing qualities of alfalfa seeds; format: in vivo; conditions: for germination energy / laboratory germination: control 76
Experimental: (§1) When evaluating the effectiveness of treatment of wheat, alfalfa, barley, rice, and sorghum seeds as fungicidal and bactericidal agents with preparation compounds at concentrations of 10, 20, and 40 mmol, their effect on the suppression of seed infection was evaluated.
(§2) […] The sowing qualities were evaluated (germination energy for 3–4 days, laboratory germination for 7–8 days) according to GOST 12038-84 [60]. Sowing qualities of seeds were determined in wet chambers. According to the sample, 50 seeds were taken in 4-fold repetition.

SH-SY5Y (neuroblastoma) = assay: Cell viability, MTT test; format: cell-based, Human; conditions: Homo sapiens, SH-SY5Y, test range 0.1 to 100 μM, read-out: IC50 (concentration causing 50% inhibition of cell population growth)
Experimental: (§3) In this work, the cytotoxic potential of the water-soluble salts based on benzofuroxan was determined by the effect of compounds on the survival of the cell tumor origin cultures (SH-SY5Y, Hep2, A549, HeLa) using the MTT test. To understand how the synthesized compounds can influence the healthy microenvironment in the body, the effect of substances on the viability of a normal Hek 293 cell culture was additionally evaluated.
(§4) Human cell cultures of tumor origin—SH-SY5Y (neuroblastoma), HeLa (cervical tumor), Hep-2 (larynx carcinoma), A549 (adenocarcinomic human alveolar basal epithelial cells)—and normal cell line Hek 293 (human embryonic kidneys), provided by the Laboratory of Tumor Cell Genetics of the Scientific Research Institute of Carcinogenesis, N.N. Blokhin National Medical Research Center of Oncology, as well as the Institute of Cytology of the Russian Academy of Sciences, were grown in a nutrient medium DMEM (PanEco, Moscow, Russia) and MEM (PanEco, Moscow, Russia), containing fetal bovine serum (10% by volume) (ThermoFisher Scientific, Paisley, UK), Glutamax (2 mM) (Gibco, Scotland, UK), and penicillin-streptomycin (1% by volume) (PanEco, Moscow, Russia). The cultivation was carried out at 37 °C in a humidified CO2 atmosphere (5%).
(§5) Cell viability was determined by MTT test. Cells were seeded in a 96-well plate in the amount of 1 × 10^4 cells/200µLof complete nutrient medium and cultured at 37 °C in CO2 (5%). After 24 h of incubation, various concentrations of test compounds in the range from 0.1 to 100 μM, were added to the cell cultures, and then the cells were cultured under the same conditions for 24 and 72 h. For each concentration, the experiment was carried out in triplicate.
(§6) All compounds were dissolved in DMSO, then diluted with the medium to the required concentration. […] The DMSO was also added to the control wells in a volume of 1%. After the incubation time, MTT (3-(4,5-dimethylthiazol-2-yl)-2,5-diphenyltetrazolium bromide, 5 mg/mL) was added to each well and plates were additionally incubated for 2 h (until the characteristic color appeared).
(§7) Using a plate analyzer (Cytation3, BioTech Instruments Inc., Winooski, VT, USA), the optical density was determined at 530 nm. The concentration value causing 50% inhibition of cell population growth (IC50) was determined from dose-dependent curves.

rice seeds = assay: Pre-sowing seed treatment, sowing qualities of rice seeds; format: in vivo; conditions: for germination energy: control 71.4; for laboratory germination: control 95.2
Experimental: as §1, §2

wheat seeds = assay: Pre-sowing seed treatment, sowing qualities of wheat seeds; format: in vivo; conditions: for germination energy: control 82; for laboratory germination: control 85.7
Experimental: as §1, §2

barley seeds = assay: Pre-sowing seed treatment, sowing qualities of barley seeds; format: in vivo; conditions: for germination energy / laboratory germination: control 95.2
Experimental: as §1, §2

[1] = tested on: Hek 293 (human embryonic kidneys); assay: Cell viability, MTT test, normal cell line; format: cell-based; conditions: HEK293, Hek 293 normal cells, test range 0.1 to 100 μM, read-out: IC50 (concentration causing 50% inhibition of cell population growth)
Experimental: as §3, §4, §5, §6, §7

[2] = tested on: fungal microflora (mushrooms) on alfalfa seeds; assay: Growth of fungal microflora on treated alfalfa seeds; format: cell-based
Experimental: During phytopathological analyses of agricultural crops, the species composition of fungal and bacterial microflora was established. Laboratory studies were carried out on two nutrient media potato-agar (ingredients: potatoes—200 g; agar-agar—20 g; distilled water—1000 mL.) and potato-dextrose agar (ingredients: potatoes—200 g;dextrose—20 g; agar-agar—20 g; distilled water—1000 mL), according to the guidelines.
When evaluating the effectiveness of treatment of wheat, alfalfa, barley, rice, and sorghum seeds as […], their effect on the suppression of seed infection was evaluated.

Hep-2 (larynx carcinoma) = assay: Cell viability, MTT test; format: cell-based; conditions: Homo sapiens, HEp-2, test range 0.1 to 100 μM, read-out: IC50 (concentration causing 50% inhibition of cell population growth)
Experimental: as §3, §4, §5, §6, §7

[3] = tested on: A549 (adenocarcinomic human alveolar basal epithelial cells); assay: Cell viability, MTT test; format: cell-based; conditions: test range 0.1 to 100 μM, read-out: IC50 (concentration causing 50% inhibition of cell population growth)
Experimental: as §3, §4, §5, §6, §7

HeLa (cervical tumor) = assay: Cell viability, MTT test; format: cell-based; conditions: Homo sapiens, test range 0.1 to 100 μM, read-out: IC50 (concentration causing 50% inhibition of cell population growth)
Experimental: as §3, §4, §5, §6, §7

sorghum seeds = assay: Pre-sowing seed treatment, sowing qualities of sorghum seeds; format: in vivo; conditions: for germination energy: control 52.3; for laboratory germination: control 57
Experimental: as §1, §2

Compound: Cl.O=[N+]([O-])c1c(Cl)cc2c(no[n+]2[O-])c1NCCN1CCCCC1
melting point: 106 to 107 °C

Compound: CN(C)Cc1ccccc1Nc1c([N+](=O)[O-])c(Cl)cc2c1no[n+]2[O-] [3a, 6-chloro-4-(2-((dimethylamino)methyl)phenylamino)-5-nitrobenzo[c][1,2,5]oxadiazole 1-oxide]
melting point: 152 to 153 °C (dec.)

Compound: CN(C)Cc1cccc(Nc2c([N+](=O)[O-])c(Cl)cc3c2no[n+]3[O-])c1 [3b, 6-chloro-4-(3-((dimethylamino)methyl)phenylamino)-5-nitrobenzo[c][1,2,5]oxadiazole 1-oxide]
melting point: 118 to 119 °C

Compound: CN(C)Cc1ccc(Nc2c([N+](=O)[O-])c(Cl)cc3c2no[n+]3[O-])cc1 [3c, 6-chloro-4-(4-((dimethylamino)methyl)phenylamino)-5-nitrobenzo[c][1,2,5]oxadiazole 1-oxide]
melting point: > 300 °C (dec.)

Compound: O=[N+]([O-])c1c(Cl)cc2c(no[n+]2[O-])c1NCCN1CCOCC1 [3d, 6-chloro-4-(2-morpholinoethylamino)-5-nitrobenzo[c][1,2,5]oxadiazole 1-oxide]
melting point: 140 to 141 °C

Compound: O=[N+]([O-])c1c(Cl)cc2c(no[n+]2[O-])c1NCCN1CCCCC1 [3f, 6-chloro-5-nitro-4-(2-(piperidin-1-yl)ethylamino)benzo[c][1,2,5]oxadiazole 1-oxide]
melting point: 88 to 89 °C

Continued, in another order:

melting point: 186 to 187 °C
Compound: O=[N+]([O-])c1c(Cl)cc2c(no[n+]2[O-])c1NCCN1CCOCC1 (as salt: chloride) [4d, 6-chloro-4-(2-(morpholino-4-ium)ethylamino)-5-nitrobenzo[c][1,2,5]oxadiazole 1-oxide chloride]

IC50 (SH-SY5Y (neuroblastoma); incubation 24 h): 44 ± 1.09 µM
IC50 (SH-SY5Y (neuroblastoma); incubation 72 h): 35.1 ± 3.85 µM
IC50 (Hep-2 (larynx carcinoma); Hep2, incubation 24 h): 98.5 ± 2.54 µM
IC50 (Hep-2 (larynx carcinoma); Hep2, incubation 72 h): 90.1 ± 3.1 µM
IC50 (HeLa (cervical tumor); incubation 24 h): 40.2 ± 2.73 µM
IC50 (HeLa (cervical tumor); incubation 72 h): 32.9 ± 0.56 µM
melting point: 125 to 126 °C (dec.)
Compound: CN(C)Cc1ccccc1Nc1c([N+](=O)[O-])c(Cl)cc2c1no[n+]2[O-].Cl [4a, 6-chloro-4-(2-((dimethylammonio)methyl)phenylamino)-5-nitrobenzo[c][1,2,5]oxadiazole 1-oxide chloride]
sowing qualities of seeds compared with control (alfalfa seeds; 10 mmol): higher than controls
germination energy (alfalfa seeds; 10 mmol): 83%
laboratory germination (alfalfa seeds; 10 mmol): 84.5%
sowing qualities of seeds compared with control (alfalfa seeds; 50 mmol): higher than controls
germination energy (alfalfa seeds; 50 mmol): 78%
laboratory germination (alfalfa seeds; 50 mmol): 79.5%
sowing qualities of seeds compared with control (rice seeds; 10 mmol): better results than the control
germination energy (rice seeds; 10 mmol): 96%
laboratory germination (rice seeds; 10 mmol): 96.5%
sowing qualities of seeds compared with control (rice seeds; 50 mmol): better results than the control
germination energy (rice seeds; 50 mmol): 99%
laboratory germination (rice seeds; 50 mmol): 99%
sowing qualities of seeds compared with control (wheat seeds; 10 mmol): higher than in the case of controls
germination energy (wheat seeds; 10 mmol): 97%
laboratory germination (wheat seeds; 10 mmol): 96.5%
sowing qualities of seeds compared with control (wheat seeds; 50 mmol): higher than in the case of controls
germination energy (wheat seeds; 50 mmol): 95%
laboratory germination (wheat seeds; 50 mmol): 96.5%
sowing qualities of seeds compared with control (barley seeds; 10 mmol): higher than control
germination energy (barley seeds; 10 mmol): 96%
laboratory germination (barley seeds; 10 mmol): 99%
sowing qualities of seeds compared with control (barley seeds; 50 mmol): higher than control
germination energy (barley seeds; 50 mmol): 95%
laboratory germination (barley seeds; 50 mmol): 97.5%
IC50 ([1]; incubation 24 h): 38.62 ± 0.1 µM
IC50 ([1]; incubation 72 h): 16.1 ± 1.86 µM
effect on fungal microflora ([2]; 10 mmol): positive effect on the suppression of fungal microflora
effect on fungal microflora ([2]; 50 mmol): positive effect on the suppression of fungal microflora
IC50 ([3]; A549, incubation 24 h): 95.5 ± 1.01 µM
IC50 ([3]; A549, incubation 72 h): 92.1 ± 3.58 µM
germination energy (sorghum seeds; 10 mmol): 47.5%
laboratory germination (sorghum seeds; 10 mmol): 49.5%
sowing qualities of seeds compared with control (sorghum seeds; 50 mmol): at the control level
germination energy (sorghum seeds; 50 mmol): 52.5%
laboratory germination (sorghum seeds; 50 mmol): 56.5%

IC50 (SH-SY5Y (neuroblastoma); incubation 24 h): 45.2 ± 2.43 µM
IC50 (SH-SY5Y (neuroblastoma); incubation 72 h): 32.1 ± 1.41 µM
IC50 (Hep-2 (larynx carcinoma); Hep2, incubation 24 h): 97 ± 2.08 µM
IC50 (Hep-2 (larynx carcinoma); Hep2, incubation 72 h): 93.1 ± 2.3 µM
IC50 (HeLa (cervical tumor); incubation 24 h): 46.1 ± 0.56 µM
IC50 (HeLa (cervical tumor); incubation 72 h): 38.1 ± 1.21 µM
Compound: CN(C)Cc1cccc(Nc2c([N+](=O)[O-])c(Cl)cc3c2no[n+]3[O-])c1 [4b, 6-chloro-4-(3-((dimethylammonio)methyl)phenylamino)-5-nitrobenzo[c][1,2,5]oxadiazole 1-oxide chloride]
IC50 ([1]; incubation 24 h): 35 ± 1.35 µM
IC50 ([1]; incubation 72 h): 27.2 ± 2.5 µM
IC50 ([3]; A549, incubation 24 h): 99.2 ± 3.38 µM
IC50 ([3]; A549, incubation 72 h): 90 ± 2.04 µM
